PubChem BioAssay AID200 (DTP/NCI, 2004)
Where “and” joins values, the source holds several entries; their conditions need not be identical. Equal entries are not always repeated. Toxic doses and inconclusive results are not listed. The calls were made as follows: active = survival T/C of 150% or more; inactive = T/C below 125% in these data. Where a SMILES comes first, the peptide text is derived from it. [ ]: non-standard residue; d: D form. The star is where a group is joined. ξ: configuration not given here. Cbz = O=C(OCc1ccccc1)*; OBn = c1ccc(CO*)cc1; Bn = c1ccc(C*)cc1; ξC = NC(CS)C(=O)O

Tested on: B6C3F1 mice, B16 melanoma ip, median survival T/C
Experiment: NCI In Vivo Anticancer Drug Screen. Data for tumor model B16 Melanoma (intraperitoneal) in B6C3F1 mice
Conditions: endpoint: median survival time, higher = longer survival
How it was run: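 Mice bearing transplanted tumor were dosed with compound or vehicle, and survival was recorded. Activity is expressed as the treated-group measurement (T) divided by the vehicle control measurement (C).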

[1] = dose: 6.25 mg/kg/injection, schedule: Q01DX009 (ip), vehicle: saline with Tween-80
[2] = dose: 12.5 mg/kg/injection, schedule: Q01DX009 (ip), vehicle: saline with Tween-80
[3] = dose: 25.0 mg/kg/injection, schedule: Q01DX009 (ip), vehicle: saline with Tween-80
[4] = dose: 50.0 mg/kg/injection, schedule: Q01DX009 (ip), vehicle: saline with Tween-80
[5] = dose: 100.0 mg/kg/injection, schedule: Q01DX009 (ip), vehicle: saline with Tween-80
[6] = dose: 200.0 mg/kg/injection, schedule: Q01DX009 (ip), vehicle: saline with Tween-80
[7] = dose: 12.5 mg/kg/injection, schedule: Q01DX009 (ip), vehicle: Klucel (hydroxypropylcellulose) (HPC)
[8] = dose: 25.0 mg/kg/injection, schedule: Q01DX009 (ip), vehicle: Klucel (hydroxypropylcellulose) (HPC)
[9] = dose: 100.0 mg/kg/injection, schedule: Q01DX009 (ip), vehicle: Klucel (hydroxypropylcellulose) (HPC)
[10] = dose: 200.0 mg/kg/injection, schedule: Q01DX009 (ip), vehicle: Klucel (hydroxypropylcellulose) (HPC)
[11] = dose: 400.0 mg/kg/injection, schedule: Q01DX009 (ip), vehicle: Klucel (hydroxypropylcellulose) (HPC)

Measured: T/C

Nc1nc(N)c2cc(CNc3ccc(C(=O)NC(CC(=O)O)CC(=O)O)cc3)ccc2n1
inactive: dose: 0.04 mg/kg/injection, schedule: Q01DX009 (ip), vehicle: Klucel (hydroxypropylcellulose) (HPC) 87 % of control | dose: 0.09 mg/kg/injection, schedule: Q01DX009 (ip), vehicle: Klucel (hydroxypropylcellulose) (HPC) 89 % of control | dose: 0.39 mg/kg/injection, schedule: Q01DX009 (ip), vehicle: Klucel (hydroxypropylcellulose) (HPC) 87 % of control | [1] 110 % of control | [2] 90 % of control | [3] 95 % of control | [4] 87 % of control

Nc1cc(=O)[nH][nH]1
inactive: [5] 91 % of control | [6] 96 % of control | dose: 400.0 mg/kg/injection, schedule: Q01DX009 (ip), vehicle: saline with Tween-80 98 % of control

O=C1c2c(O)cccc2-c2nn(CCNCCO)c3ccc(NCCNCCO)c1c23
active: dose: 2.75 mg/kg/injection, schedule: Q01DX009 (ip), vehicle: water 250 % of control | dose: 5.5 mg/kg/injection, schedule: Q01DX009 (ip), vehicle: water 158 % of control

Nc1ncc(C2OC(CO)C(O)C2O)c(=O)[nH]1 (stereo unspecified)
active: dose: 50.0 mg/kg/injection, schedule: Q01DX009 (ip), vehicle: saline 150 % of control | dose: 100.0 mg/kg/injection, schedule: Q01DX009 (ip), vehicle: saline 154 % of control

C=C1C(=O)[C@]23C[C@H]1CC[C@H]2[C@@]12CO[C@@H](O)[C@@H]1C(C)(C)[C@@H](O)C[C@@H]2OC3=O
inactive: [3] 102 % of control | [4] 102 % of control

NC(N)=NC(N)=Nc1ccc(-c2ccc(N=C(N)N=C(N)N)cc2)cc1
inactive: dose: 0.78 mg/kg/injection, schedule: Q01DX009 (ip), vehicle: saline with Tween-80 98 % of control | dose: 1.56 mg/kg/injection, schedule: Q01DX009 (ip), vehicle: saline with Tween-80 107 % of control | dose: 3.13 mg/kg/injection, schedule: Q01DX009 (ip), vehicle: saline with Tween-80 90 % of control | [1] 106 % of control | [2] 93 % of control

O=C(CNC(=O)C(CSCc1ccccc1)NC(=O)OCc1ccccc1)NCC(=O)OCc1ccccc1 (stereo not drawn) (Cbz-[ξC](Bn)-Gly-Gly-OBn)
inactive: [7] 92 % of control | [8] 88 % of control

NS(=O)(=O)OCCCCCCCOS(N)(=O)=O
active: [4] 171 % of control
inactive: [2] 115 % of control

COc1cc2c(cc1O)C1C(O)C(O)C=C3CCN(C2)C31 (stereo unspecified)
inactive: dose: 4.0 mg/kg/injection, schedule: Q01DX009 (ip), vehicle: saline + alcohol 114 % of control | dose: 8.0 mg/kg/injection, schedule: Q01DX009 (ip), vehicle: saline + alcohol 100 % of control | dose: 16.0 mg/kg/injection, schedule: Q01DX009 (ip), vehicle: saline + alcohol 105 % of control | dose: 32.0 mg/kg/injection, schedule: Q01DX009 (ip), vehicle: saline + alcohol 102 % of control

C=C(C)C(=O)OC1CC(C)(O)C2(O)CCC(C)(/C=C3\OC(=O)C(COC(C)=O)=C31)O2 (stereo unspecified)
inactive: dose: 0.62 mg/kg/injection, schedule: Q01DX009 (ip), vehicle: distilled water + Tween-80 + alcohol 96 % of control | dose: 1.25 mg/kg/injection, schedule: Q01DX009 (ip), vehicle: distilled water + Tween-80 + alcohol 105 % of control | dose: 2.5 mg/kg/injection, schedule: Q01DX009 (ip), vehicle: distilled water + Tween-80 + alcohol 92 % of control | dose: 5.0 mg/kg/injection, schedule: Q01DX009 (ip), vehicle: distilled water + Tween-80 + alcohol 89 % of control

ClCCCN1CCN(CCCCl)CC1
inactive: dose: 6.25 mg/kg/injection, schedule: Q01DX009 (ip), vehicle: distilled water + alcohol 109 % of control and 98 % of control | dose: 12.5 mg/kg/injection, schedule: Q01DX009 (ip), vehicle: distilled water + alcohol 102 % of control and 104 % of control | dose: 25.0 mg/kg/injection, schedule: Q01DX009 (ip), vehicle: distilled water + alcohol 108 % of control and 105 % of control | dose: 50.0 mg/kg/injection, schedule: Q01DX009 (ip), vehicle: distilled water + alcohol 118 % of control and 107 % of control | dose: 100.0 mg/kg/injection, schedule: Q01DX009 (ip), vehicle: distilled water + alcohol 115 % of control and 118 % of control

Nc1nc(N)c(N=O)c(Nc2ccc(I)cc2)n1
inactive: [4] 115 % of control | [5] 110 % of control | [6] 98 % of control

COc1cc2c(c(OC)c1OC)-c1cccc(=O)cc1C(NC(C)=O)CC2 (stereo unspecified)
inactive: dose: 1.25 mg/kg/injection, schedule: Q01DX009 (ip), vehicle: water 98 % of control | dose: 2.5 mg/kg/injection, schedule: Q01DX009 (ip), vehicle: saline 97 % of control | dose: 2.5 mg/kg/injection, schedule: Q01DX009 (ip), vehicle: water 102 % of control | dose: 5.0 mg/kg/injection, schedule: Q01DX009 (ip), vehicle: saline 100 % of control | dose: 5.0 mg/kg/injection, schedule: Q01DX009 (ip), vehicle: water 97 % of control | dose: 10.0 mg/kg/injection, schedule: Q01DX009 (ip), vehicle: saline 116 % of control | dose: 10.0 mg/kg/injection, schedule: Q01DX009 (ip), vehicle: water 96 % of control | dose: 20.0 mg/kg/injection, schedule: Q01DX009 (ip), vehicle: saline 99 % of control | dose: 20.0 mg/kg/injection, schedule: Q01DX009 (ip), vehicle: water 103 % of control | dose: 40.0 mg/kg/injection, schedule: Q01DX009 (ip), vehicle: saline 103 % of control

COc1cc(Cl)ccc1C
inactive: dose: 9.37 mg/kg/injection, schedule: Q01DX009 (ip), vehicle: Klucel (hydroxypropylcellulose) (HPC) 100 % of control | dose: 18.75 mg/kg/injection, schedule: Q01DX001 (ip), vehicle: Klucel (hydroxypropylcellulose) (HPC) 109 % of control | dose: 18.75 mg/kg/injection, schedule: Q01DX009 (ip), vehicle: Klucel (hydroxypropylcellulose) (HPC) 100 % of control | dose: 37.5 mg/kg/injection, schedule: Q01DX001 (ip), vehicle: Klucel (hydroxypropylcellulose) (HPC) 107 % of control | dose: 37.5 mg/kg/injection, schedule: Q01DX009 (ip), vehicle: Klucel (hydroxypropylcellulose) (HPC) 98 % of control | dose: 75.0 mg/kg/injection, schedule: Q01DX001 (ip), vehicle: Klucel (hydroxypropylcellulose) (HPC) 115 % of control | dose: 75.0 mg/kg/injection, schedule: Q01DX009 (ip), vehicle: Klucel (hydroxypropylcellulose) (HPC) 101 % of control | dose: 150.0 mg/kg/injection, schedule: Q01DX001 (ip), vehicle: Klucel (hydroxypropylcellulose) (HPC) 110 % of control | dose: 150.0 mg/kg/injection, schedule: Q01DX009 (ip), vehicle: Klucel (hydroxypropylcellulose) (HPC) 100 % of control | dose: 300.0 mg/kg/injection, schedule: Q01DX001 (ip), vehicle: Klucel (hydroxypropylcellulose) (HPC) 111 % of control | dose: 300.0 mg/kg/injection, schedule: Q01DX009 (ip), vehicle: Klucel (hydroxypropylcellulose) (HPC) 95 % of control

CCCCC(NC(=O)CNC(=O)CNC(=O)OCc1ccccc1)C(=O)O (stereo unspecified) (HELM PEPTIDE1{[O=C(OCc1ccccc1)[*:2]].G.G.[CCCCC(N[*:1])C(=O)O]}$$$$V2.0)
inactive: [9] 102 % of control | [10] 105 % of control | [11] 96 % of control

C=Cc1cc(OC)c2c(c1)c(=O)oc1c2cc(OC)c2c(O)ccc(C3OC(C(C)O)C(O)C3O)c21 (stereo unspecified)
active: [8] 165 % of control

CC(C)(C)OC(=O)NC(Cc1ccc(O)cc1)C(=O)O (stereo unspecified)
inactive: [9] 108 % of control | [10] 103 % of control | [11] 97 % of control

COc1ccc(OCC(O)CN2CCN(c3ccc(Cl)cc3)CC2)cc1 (stereo unspecified)
inactive: [2] 122 % of control | [3] 122 % of control | [4] 87 % of control | [5] 89 % of control and 96 % of control

S=C(S)N1CCCNCC1 (tested in a mixture with another compound)
inactive: [2] 107 % of control | [3] 100 % of control | [4] 92 % of control

CC1C=NNC1=O (stereo unspecified)
inactive: [7] 100 % of control | [8] 102 % of control | dose: 50.0 mg/kg/injection, schedule: Q01DX009 (ip), vehicle: Klucel (hydroxypropylcellulose) (HPC) 117 % of control | [9] 92 % of control | [10] 95 % of control | [11] 95 % of control

CCCCNC(C)[C@]1(O)Cc2c(O)c3c(c(O)c2[C@@H](OC2CC(N)C(O)C(C)O2)C1)C(=O)c1c(OC)cccc1C3=O (stereo partly specified)
active: dose: 0.75 mg/kg/injection, schedule: Q01DX009 (ip), vehicle: saline 162 % of control and 163 % of control | dose: 1.5 mg/kg/injection, schedule: Q01DX009 (ip), vehicle: saline 211 % of control and 232 % of control | dose: 3.0 mg/kg/injection, schedule: Q01DX009 (ip), vehicle: saline 235 % of control and 333 % of control
229 % of control and 95 % of control: dose: 6.0 mg/kg/injection, schedule: Q01DX009 (ip), vehicle: saline
